Measured values taken from patent US12029739B2, “SHP2 inhibitor and use thereof” (KANAPH THERAPEUTICS INC., priority 2021, dated 2024).
Where two headings read alike, the source gives them in different places.

Columns and labels:
[1] = tested on: phospho-ERK in MIA PaCa2 or H358 cells; assay: Phospho-ERK assay (AlphaLisa); assay type: cell-based
SHP2 (full length) = molecular target: T1, SHP2 (full length) (Homo sapiens, UniProt Q06124); assay: Phosphatase assay (PTPase assay) with DiFMUP substrate; assay type: biochemical; details: SHP2 activated with SHP2 activating peptide, DiFMUP 80 μM, 2 hours, fluorescence
T1 construct: SHP2 (full length, diluted to 100 pM final concentration in reaction buffer, BPS bioscience, US); purchased BPS bioscience, US
T1 sequence (Q06124 1-593): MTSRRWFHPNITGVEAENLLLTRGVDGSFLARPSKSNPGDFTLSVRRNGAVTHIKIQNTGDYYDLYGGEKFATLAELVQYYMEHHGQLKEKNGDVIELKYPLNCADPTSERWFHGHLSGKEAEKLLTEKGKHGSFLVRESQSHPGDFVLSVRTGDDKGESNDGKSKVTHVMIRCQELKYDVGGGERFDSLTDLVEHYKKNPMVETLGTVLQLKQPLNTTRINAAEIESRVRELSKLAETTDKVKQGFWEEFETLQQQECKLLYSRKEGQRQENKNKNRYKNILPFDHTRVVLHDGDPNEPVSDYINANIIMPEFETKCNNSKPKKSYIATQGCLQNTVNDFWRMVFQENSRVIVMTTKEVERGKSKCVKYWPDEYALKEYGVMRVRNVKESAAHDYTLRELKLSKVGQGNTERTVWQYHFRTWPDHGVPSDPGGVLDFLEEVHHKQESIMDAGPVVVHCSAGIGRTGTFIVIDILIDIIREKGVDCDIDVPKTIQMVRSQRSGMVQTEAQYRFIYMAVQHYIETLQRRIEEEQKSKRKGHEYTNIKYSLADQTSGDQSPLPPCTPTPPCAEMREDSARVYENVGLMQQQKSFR

[2] = 1.5 h, MIA PaCa2 or H358 cells, compound incubated 1.5 hours, read-out: IC50 (p-ERK)

| IC50 [1, 2] [nM] | IC50 (SHP2 (full length); read-out: IC50 (PTPase aS say)) [nM] | SMILES | IC50 ([1]; 1.5 h, read-out: IC50 (p-ERK, nM)) [nM] | IC50 (SHP2 (full length); IC50 (PTPase aS say, nM)) [nM] | IC50 ([1]; MIA PaCa2 or H358 cells, compound incubated 1.5 hours, read-out: IC50 (p-ERK)) [nM] |
| --- | --- | --- | --- | --- | --- |
|  |  | C[C@@H]1OCC2(CCN(c3cnc(Sc4ccc5ncn(Cc6cccc(S(=O)(=O)F)c6)c(=O)c5c4Cl)cn3)CC2)[C@@H]1N [Example 19, 3-((6-((5-((3S,4S)-4-amino-3-methyl-2-oxa-8-azospiro[4.5]decan-8-yl)pyrazin-2-yl)thio)-5-chloro-4-oxoquinazolin-3(4H)-yl)methyl)benzenesulfonyl fluoride] | 45 to 1500 | < 3 |  |
| < 45 | < 3 | C[C@@H]1OCC2(CCN(c3cnc(Sc4ccc5ncn(Cc6cccc(O)c6)c(=O)c5c4Cl)cn3)CC2)[C@@H]1N [Example 66, 6-((5-((3S,4S)-4-amino-3-methyl-2-oxa-8-azaspiro[4.5]decan-8-yl)pyrazin-2-yl)thio)-5-chloro-3-(3-hydroxybenzyl)quinazolin-4(3H)-one] |  |  |  |
| < 45 | < 3 | COCCn1cnc2ccc(Sc3cnc(N4CCC5(CC4)CO[C@@H](C)[C@H]5N)cn3)c(Cl)c2c1=O [Example 64, 6-((5-((3S,4S)-4-amino-3-methyl-2-oxa-8-azaspiro[4.5]decan-8-yl)pyrazin-2-yl)thio)-5-chloro-3-(2-methoxyethyl)quinazolin-4(3H)-one] |  |  |  |
| 45 to 1500 | 3 to 100 | C[C@@H]1OCC2(CCN(c3cnc(Sc4ccc5ncn(C6CCCCC6)c(=O)c5c4Cl)cn3)CC2)[C@@H]1N [Example 91, 6-((5-((3S,4S)-4-amino-3-methyl-2-oxa-8-azaspiro[4.5]decan-8-yl)pyrazin-2-yl)thio)-5-chloro-3-cyclohexylquinazolin-4(3H)-one] |  |  |  |
| 45 to 1500 | < 3 | C[C@@H]1OCC2(CCN(c3cnc(Sc4ccc5ncn(Cc6cccc(F)c6)c(=O)c5c4Cl)cn3)CC2)[C@@H]1N [Example 33, 6-((5-((3S,4S)-4-amino-3-methyl-2-oxa-8-azaspiro[4.5]decan-8-yl)pyrazin-2-yl)thio)-5-chloro-3-(3-fluorobenzyl)quinazolin-4(3H)-one] |  |  |  |
| 45 to 1500 | 3 to 100 | C[C@@H]1OCC2(CCN(c3cnc(Sc4ccc5ncn(Cc6cccc(C(F)(F)F)c6)c(=O)c5c4Cl)cn3)CC2)[C@@H]1N [Example 34] |  |  |  |
| < 45 | < 3 | COCCn1cnc2ccc(Sc3cnc(N4CCC5(CC4)Cc4ncccc4[C@H]5N)c(CO)n3)c(Cl)c2c1=O [Example 168, (S)-6-((5-(5-amino-5,7-dihydrospiro[cyclopenta[b]pyridine-6,4′-piperidin]-1′-yl)-6-(hydroxymethyl)pyrazin-2-yl)thio)-5-chloro-3-(2-methoxyethyl)quinazolin-4(3H)-one] |  |  |  |
| > 1500 | > 100 | Cn1c(N2CCC(C)(N)CC2)nc(N)c(Sc2ccc3ncn(-c4ccccc4)c(=O)c3c2Cl)c1=O [Example 30, 6-((4-amino-2-(4-amino-4-methylpiperidin-1-yl)-1-methyl-6-oxo-1,6-dihydropyrimidin-5-yl)thio)-5-chloro-3-phenylquinazolin-4(3H)-one] |  |  |  |
| 45 to 1500 | 3 to 100 | C[C@@H]1OCC2(CCN(c3cnc(Sc4ccc5ncn(CC6CCCN6C)c(=O)c5c4Cl)cn3)CC2)[C@@H]1N (stereo partly drawn) [Example 74, 6-((5-((3S,4S)-4-amino-3-methyl-2-oxa-8-azaspiro[4.5]decan-8-yl)pyrazin-2-yl)thio)-5-chloro-3-((l-methylpyrrolidin-2-yl)methyl)quinazolin-4(3H)-one] |  |  |  |
| > 1500 | > 100 | Cn1c(N2CCN(CC(N)CCc3ccccc3)CC2)nc(N)c(Sc2cccc(Cl)c2Cl)c1=O (stereo not drawn) [Example 189, 6-amino-2-(4-(2-amino-4-phenylbutyl)piperazin-1-yl)-5-((2,3-dichlorophenyl)thio)-3-methylpyrimidin-4(3H)-one] |  |  |  |
| > 1500 | > 100 | Cn1c(N2CCCN(CCCN)CC2)nc(N)c(Sc2cccc(Cl)c2Cl)c1=O [Example 201, 6-amino-2-(4-(3-aminopropyl)-1,4-diazepan-1-yl)-5-((2,3-dichlorophenyl)thio)-3-methylpyrimidin-4(3H)-one] |  |  |  |
| 45 to 1500 | > 100 | Cn1c(N2CCN(C[C@H](N)Cc3ccncc3)CC2)nc(N)c(Sc2cccc(Cl)c2Cl)c1=O [Example 186, (R)-6-amino-2-(4-(2-amino-3-(pyridin-4-yl)propyl)piperazin-1-yl)-5-((2,3-dichlorophenyl)thio)-3-methylpyrimidin-4(3H)-one] |  |  |  |
| < 45 | < 3 | N[C@@H]1c2cccnc2CC12CCN(c1cnc(Sc3ccc4ncn(Cc5ccncn5)c(=O)c4c3Cl)cn1)CC2 [Example 141, (S)-6-((5-(5-amino-5,7-dihydrospiro[yclopenta[b]pyridine-6,4′-piperidin]-1′-yl)pyrazin-2-yl)thio)-5-chloro-3-(pyrimidin-4-ylmethyl)quinazolin-4(3H)-one] |  |  |  |
| > 1500 | < 3 | COCCCn1cnc2ccc(Sc3cnc(N4CCC5(CC4)CO[C@@H](C)[C@H]5N)cn3)c(Cl)c2c1=O [Example 94, 6-((5-((3S,4S)-4-amino-3-methyl-2-oxa-8-azaspiro[4.5]decan-8-yl)pyrazin-2-yl)thio)-5-chloro-3-(3-methoxypropyl)quinazolin-4(3H)-one] |  |  |  |

| SMILES | IC50 [1, 2] [nM] | IC50 (SHP2 (full length); read-out: IC50 (PTPase aS say)) [nM] | IC50 ([1]; 1.5 h, read-out: IC50 (p-ERK, nM)) [nM] | IC50 (SHP2 (full length); IC50 (PTPase aS say, nM)) [nM] | IC50 ([1]; MIA PaCa2 or H358 cells, compound incubated 1.5 hours, read-out: IC50 (p-ERK)) [nM] |
| --- | --- | --- | --- | --- | --- |
| CC(=O)Cn1cnc2ccc(Sc3cnc(N4CCC5(CC4)Cc4ncccc4[C@H]5N)cn3)c(Cl)c2c1=O [Example 112] |  | < 3 |  |  | < 45 |
